Assay results published in patent US20260294874A1, “COMPOSITIONS COMPRISING MODULATORS OF RIBONUCLEOPROTEIN GRANULE FORMATION AND DISSOLUTION AND METHODS OF USE THEREOF” (University of Virginia Patent Foundation, priority 2023, published 2026).
Entries after “also recorded” stand apart in the source; their conditions may differ.

What was measured:
[1] = system: stress granules (G3BP1 foci) in HeLa cells; test: Immunofluorescence phenotypic screen for stress granules (α-G3BP1) in stressed HeLa cells; assay type: cell-based; conditions: 2 h; for effect on SGs (in words): 25 μM; for inhibition at 25 µM: read-out: reduction/inhibition of SGs/cell
Procedure: SuTEx compound treatments. Prior to treatments, cells were washed twice with warm phosphate-buffered saline (PBS) and exchanged with serum-free DMEM (supplemented with 1% L-glutamine) for at least 30 minutes at 37° C. with 5% CO2. Compounds were then added as 1000×DMSO stocks (10 μL for 10 cm dishes and 3 μL for 6-well dishes), plates were mixed gently, and cells were incubated for two hours. All compounds were thoroughly vortexed and sonicated for five minutes prior to addition to ensure complete solvation. For microscopy experiments, cultures were seeded at 150,000 cells in 3 mL of DMEM in 6-well THERMO SCIENTIFIC™ BIOLITE™ brand microwell plates (Catalog No. 12556004; Thermo Fisher Scientific Inc., Waltham, Massachusetts. United States of America). For collection, media was aspirated, and cells were washed once with cold PBS before scraping from plates. Cells were centrifuged at 500×g at 4° C. for 5 minutes and supernatant was removed. Cell pellets were resuspended in cold PBS (1 mL) and centrifuged at 1,400×g at 4° C. for 3 minutes. Supernatant was again removed, and pellets were then snap-frozen in liquid nitrogen and stored at −80° C. until needed.
Immunofluorescence. Immunofluorescence (IF) of HEK293T cells was performed as previously described in Ciancone et al., 2022. HeLa cells were seeded at 9.0×10^4 in a 24-well plate with 12-mm glass coverslips. The next day, the cells were treated with 25 μM SuTEx probe for 2 hours in DMEM medium without FBS. The cells were then treated with 75 μM NaAsO2 for 30 minutes and fixed with 3% paraformaldehyde in PBS for 15 minutes at room temperature (RT) and washed with PBS twice. The fixed cells were permeabilized with PBST (0.1% Triton X-100) for 15 minutes at room temperature and blocked with 5% goat serum in PBST for 30 minutes at RT. The cells were incubated with anti-G3BP1 antibody H-10 (Catalog No. sc-365338 at 1:200 dilution; Santa Cruz Biotechnology, Inc., Dallas, Texas, United States of America) for 2 hours at RT and washed with PBST (0.1% Tween-20) for 5 minutes three times. Next, cells were incubated with goat anti-mouse Alexa 594 antibody (Catalog No. 115-585-003 at 1:800 dilution; Jackson ImmunoResearch, West Grove, Pennsylvania, United States of America) for 30 minutes at RT. The cells were washed twice with PBST, stained with Hoechst 33342 (Catalog No. H3570 at […]; Thermo Fischer Scientific) in PBST for 5 minutes, and washed with PBS twice for 5 minutes. The coverslips were mounted in PROLONG™ Gold AntiFade Mountant (Catalog No. P36930, Thermo Fisher Scientific) and imaged using NIS Elements AR software and a Nikon Eclipse Ti microscope equipped with a ×100 objective and CMOS camera. […] A CellProfiler pipeline was developed to quantify the number of stress granules under each condition. Briefly, cells were recognized as blue^+ (nuclei) red^+ (G3BP1) objects, and the red^+ granules that meet the shape and size threshold were identified and counted. Cells on the border of linages were excluded from the analysis for more accurate quantification.
We used immunofluorescence (IF) detection for phenotypic screening of SuTEx compound activity on stress-induced PB and SG levels in cells (FIG. 1B). PBs were induced through glucose deprivation of HEK293T cells and detected by immunofluorescence with anti-enhancer of mRNA-decapping protein 4 (EDC4) as previously described (Kedersha & Anderson, 2007; Ciancone et al., 2022) (~4 vs 2 PBs/cell in −glucose and +glucose conditions, respectively; FIG. 8). EDC4 is an established PB marker for mammalian cells and is important for PB formation (Kedersha & Anderson, 2007; Luo et al., 2018). SGs were induced in HeLa cells by [COMPOUND LEFT OUT] treatments and detected by fluorescent staining with anti-Ras GTPase-activating protein-binding protein 1 (G3BP1) antibody (75 μM [COMPOUND LEFT OUT], 30 min; FIG. 9). G3BP1 foci have been used in previous IF studies to identify SGs in cells (Kedersha & Anderson, 2007). […]

[2] = target: T1, G3BP1 Y40 (Homo sapiens, UniProt Q13283); test: Competitive ABPP SILAC LC-MS/MS chemical proteomics, G3BP1 Y40; assay type: cell-based; conditions: stressed HeLa cells, 25 μM, 2 h
T1 construct: liganded site Y40 in NTF2 domain
T1 sequence (Q13283 whole entry, the tested form may be a part): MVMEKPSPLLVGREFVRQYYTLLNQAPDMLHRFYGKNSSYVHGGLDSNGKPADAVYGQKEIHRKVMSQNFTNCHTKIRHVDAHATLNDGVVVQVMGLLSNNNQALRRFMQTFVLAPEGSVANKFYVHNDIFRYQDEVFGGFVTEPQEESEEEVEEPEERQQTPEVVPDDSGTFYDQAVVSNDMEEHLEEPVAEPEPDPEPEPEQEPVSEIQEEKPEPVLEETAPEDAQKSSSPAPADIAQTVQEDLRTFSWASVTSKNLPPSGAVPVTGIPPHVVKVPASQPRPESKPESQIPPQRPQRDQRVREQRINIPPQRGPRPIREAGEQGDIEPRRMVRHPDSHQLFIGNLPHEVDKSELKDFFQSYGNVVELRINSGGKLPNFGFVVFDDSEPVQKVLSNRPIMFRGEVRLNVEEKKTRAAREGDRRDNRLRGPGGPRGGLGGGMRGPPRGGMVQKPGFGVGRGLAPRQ
Procedure: Preparation of SILAC proteomes for LC-MS/MS analysis. SILAC cell proteomes were fractionated to collect the supernatant and normalized to 2.3 mg/mL in PBS. ‘Heavy’ and ‘light’ proteomes were aliquoted (427 μL) and probe-modified proteins were conjugated to desthiobiotin-PEG-3-azide using copper-catalyze azide-alkyne cycloaddition, trypsinized into peptides using Trypsin/Lys-C Mix (Catalog No. V5071; Promega Corporation, Madison, Wisconsin, United States of America), enriched using PIERCE™ Avidin Agarose brand beads (Catalog No. 20219; Thermo Fisher Scientific Inc., Waltham, Massachusetts. United States of America), and prepared for nano-electrospray ionization-LC-MS/MS analysis as previously described in Hahm et al., 2020.
Data Analysis—Chemical Proteomics. Identification and analysis of peptides and proteins using LC-MS was accomplished using bioinformatics software and quality control parameter protocols as previously described in Hahm et al., 2020.
We performed quantitative liquid-chromatography tandem mass spectrometry (LC-MS/MS) chemical proteomic studies to identify the target protein and binding site(s) of SuTEx fragments with RNP granule modulating activity. […] SILAC light and heavy cells (HEK293T and HeLa) were treated with experimental conditions used for phenotypic screening including the SuTEx ligand pretreatment (25 μM, 2 h) followed by PB (glucose-deprivation, 15 min) and SG induction (75 μM [COMPOUND LEFT OUT], 30 min). Afterwards, cells were lysed, soluble proteomes treated with HHS-465 SuTEx probe (100 μM, 1 h), a global Tyr/Lys-reactive probe used previously for RNP granule investigations (Ciancone et al., 2022), and samples processed to probe-modified peptides for LC-MS/MS analysis as previously reported (Huang et al., 2021), shown in FIG. 10.
We detected ~8,700 probe-modified sites (Tyr and Lys) in our aggregate HeLa and HEK293T chemical proteomic analyses. […]

Row | Structure (SMILES) | effect on SGs (in words) [1] | inhibition at 25 µM ([1]; Homo sapiens) | fold induction at 25 µM ([1]; Homo sapiens, read-out: increase in SGs per cell) | liganding of G3BP1 Y40 (in words) [2] | SILAC ratio (SR), G3BP1 Y40 ([2]; HHS-465 100 μM, DMSO (light)/ligand (heavy))
1 | CC(C)c1cc(C(C)C)c(S(=O)(=O)n2cc(-c3ccc(C(F)(F)F)cc3)nn2)c(C(C)C)c1 [AHL-003] | block both types of RNP granules; also recorded: inhibited | > 70% | – | – | –
2 | COc1ccc(S(=O)(=O)n2cc(CS(C)(=O)=O)nn2)cc1 [AHL-030, 1-((4-Methoxyphenyl)sulfonyl)-4-((methylsulfonyl)methyl)-1H-1,2,3-triazole] | SG enhancer; also recorded: SG-enhancing; also recorded: enhance SGs; also recorded: increased SGs | – | ~2 | – | –
3 | N#Cc1ccc(S(=O)(=O)n2cc(-c3cccc(Cl)c3)nn2)cc1 [EKT231, 4-((4-(3-Chlorophenyl)-1H-1,2,3-triazol-1-yl)sulfonyl)benzonitrile] | – | – | – | lack of binding activity | –
4 | COc1ccc(S(=O)(=O)n2cc(C3CCCCC3)nn2)cc1 [HHS-166, 4-Cyclohexyl-1-((4-methoxyphenyl)sulfonyl)-111-1,2,3-triazole] | moderate, but statistically significant inhibitory activity; also recorded: enriched activity; also recorded: inhibits SG assembly; also recorded: inhibited SGs | ~50% | – | liganded G3BP1 Y40; also recorded: liganded site (Y40) | > 2
